The text below walks through data of US20180346525A1, “DIAGNOSTIC AND THERAPEUTIC QUORUM-SENSING-MANIPULATION MOLECULES THAT ARE TRACKABLE FOR HEALTH-CARE AND INDUSTRIAL SYSTEMS” (The Trustees of Princeton University, priority 2017, published 2018).

The experiment deals with S. aureus Agr QS (AgrC-I/AgrA, agrP3 promoter). Briefly: Agr QS fluorescence reporter (agrP3-mkate2) in S. aureus reporter strain. In kind it is cell-based, Staphylococcus aureus. The settings on record: FIG. 3. The text has this: FIG. 1 illustrates the Agr QS responses of S. aureus to exogenously supplied agonists and antagonists or conjugates of those compounds attached to detectable moieties. To follow the QS status of S. aureus cells, confocal microscopy and an S. aureus reporter strain that produced the fluorescent protein mKate2 in response to exogenous addition of AIP-I was used. The reporter strain was a ΔagrBDCA ΔRNAIII S. aureus mutant harboring agrCA driven by the native agrP2 promoter. […] The plasmid also harbored the Agr-activated agrP3 promoter fused to mkate2. […] This QS response was repressed by the administration of AIP-II. […] However, once the cells detected the exogenous autoinducers, the cells produced mKate2 (red fluorescent protein). […]
Transcription from fluorescence reporter genes was measured in S. aureus strain MK242. […] Using a Synergy 2 plate reader (Biotek, Winooski, Vt.), GFPmut2 and mKate2 levels were measured at 484 nm/528 nm and 588 nm/633 nm, respectively. […]
Imaging was performed using a Nikon Eclipse Ti inverted microscope (Melville, N.Y.) fitted with a Yokogawa CSU X-1 confocal spinning disk scanning unit (Biovision Technologies, Exton, Pa.) and DU-897 X-9351 camera (Andor, Concord, Mass.). […] In the area of an individual cell, both the constitutive GFPmut2 fluorescence and the QS controlled mKate2 fluorescence were measured, subtracted from background signals and summed. […]

For AIP-I, the “Specific binding to AgrC receptors, indicated by AIP-II competition” value is reported as “specifically bind to AgrC receptors”. Further, the “mKate2 production in the reporter strain” value (1 μM compound alone) is given as “produced”.
